Data set [1] in a line: In vivo brain permeability (plasma and cerebrospinal fluid PK). The note with it: CD1 mice, PO 10 mg/kg; for AUC(0-inf) / Cmax / Tmax / half-life: mouse. How it is done:
The test compound was dissolved in the vehicle to prepare a clear solution or a homogeneous suspension. Three mice (CD1 mice) per group were orally administered (PO) at 10 mg/kg. Plasma and cerebrospinal fluid were collected at 1 h, 4 h, and 8 h after oral administration and quantitatively analyzed by LC/MS/MS. Conclusion: At least some of the compounds of the present application have reached very high levels of Cmax and AUC in cerebrospinal fluid and have good in vivo brain permeability. […] Table 7 Plasma and cerebrospinal fluid PK of compound 25

The nature of data set [2]: Cell membrane permeability (cell monolayer, A to B and B to A). It counts as in vitro ADME. As to conditions: 120 min, 37°C. How it is done: Test compounds were diluted from 10 mM stock solution to a concentration of 10 µM in transport buffer (HBSS + BSA) and applied to the apical or basolateral side of the cell monolayer. The permeability of the test compounds was determined in both direction of from A to B and B to A directions after 120 min incubation at 37°C, 5% CO2 and 95% relative humidity. In addition, the efflux ratio of each compound was determined. The analyte and reference compounds were quantified by LC-MS/MS based on the analyte/IS peak area ratio.

Data set [3] in a line: Kinetic solubility evaluation. It counts as physicochemical. The note with it: pbs, pH 7.4, aqueous buffer. How it is done:
10 mM stock solution was prepared by dissolving the test compound in DMSO. 100 mM K2HPO4 solution was prepared by adding 8.71 g K2HPO4 to 500 mL deionized water. 100 mM KH2PO4 solution was prepared by adding 2.05 g KH2PO4 to 150 mL deionized water. 405 mL of 100 mM K2HPO4 and 95 mL of 100 mM KH2PO4 were mixed and adjusted to pH 7.4 with 100 mM K2HPO4/KH2PO4 solution.
16 µL of 10 mM compound stock solution was added to 784 µL of PBS buffer (n = 3) by 96 well plate, and the plate was sealed and shaken at 25°C, 1000 rpm for 1.5 h. After incubation, the solution was transferred to a filter plate. All samples were filtered. 5 µL of the filtrate was taken, added to 5 µL of DMSO and 490 µL acetonitrile aqueous solution containing internal standard (1:1) and mixed. Then the mixed solution was diluted with acetonitrile aqueous solution containing internal standard (1:1) according to the properties of the compound and its response in the mass spectrometer. The dilution factor was adjusted according to the solubility value and UPLC-MS/MS signal response.

Data set [4] can be described thus: Pharmacokinetic evaluation in mice. The data set is classed as in vivo, CD1 mice. The note with it: plasma. How it is done: The test compound was dissolved in the vehicle to prepare a clear solution or a homogeneous suspension. Three mice (CD1 mice) per group were administered 2 mg/kg via the tail vein and 10 mg/kg orally (PO). Blood was collected at 0.083 h, 0.25 h, 0.5 h, 1 h, 2 h, 4 h, 8 h, and 24 h after intravenous administration, and at 0.083 h, 0.25 h, 0.5 h, 1 h, 2 h, 4 h, 8 h and 24 h after oral administration. Plasma samples were centrifuged, and the supernatant was collected to prepare samples for quantitative analysis by LC/MS/MS. Conclusion: At least some of the compounds of the present application (e.g., compound 25) have excellent pharmacokinetic properties in mice (including but not limited to Cl (clearance rate), T1/2 (half-life), Cmax (peak concentration), AUC (area under the drug-time curve), F (bioavailability), etc.). Table 6 The mouse PK properties of compound 25

The test system of the next data set is sciatic nerve. Nature of the data set: Mouse sciatic nerve axotomy (SNA) model. It counts as in vivo. The note with it: mice, Figure 2. The source says: Methods: Mice were anesthetized with isoflurane, and the skin of the right hind limb was shaved and sterilized with iodine. An incision was made between the knee and hip joints, and the gluteal muscle was carefully separated using a pair of sterile surgical scissors. The sciatic nerve was cut proximally to the thigh with a pair of sterile surgical scissors, and a 1-2 mm segment of the nerve was removed to prevent axonal regeneration into the distal stump. The gluteal muscle was then placed back to its original anatomical position, and the overlying skin was reattached with surgical staples or sutures.
To examine the denervation of the neuromuscular junction (NMJ), the tibialis anterior muscles were dissected from perfused animals and fixed overnight with 4% paraformaldehyde/PBS at 4°C. Immunohistochemical staining was subsequently performed with Neurofilament-L antibody and Synapsin-1 antibody as well as acetylcholine receptor (AchR) markers. Finally, imaging was performed by laser confocal microscope Zeiss LSM710.

For orientation: AUC(0-inf) means the area under the concentration-time curve extrapolated to infinity. Read a low AUC(0-inf) as less exposure. The term Cmax denotes the maximum level reached in the sampled fluid or tissue. For orientation: Tmax means the time from dosing to the highest level. The half-life is the time needed for the level to fall by half in the phase considered. What is called efflux ratio is a quotient of directional permeabilities that is used to spot active efflux. The term Papp A→B denotes the apparent permeability from the apical to the basolateral side of a cell layer. Lower therefore signals poor permeation. By solubility is commonly meant the dissolved amount per volume that the medium holds. A high value points to a readily soluble substance. What is called clearance is the rate of elimination divided by the concentration. Read a high clearance as efficient removal. By bioavailability is commonly meant dose-corrected exposure relative to a reference, in per cent. As to `O=C1C(Cc2ccc(Cl)c(F)c2)CCCN1c1nc2c([nH]1)COc1cnccc1-2` (centres unmarked) [Cpd. 25], the AUCbrain/AUCplasma in data set [1] was 0.71. In addition, in data set [1] (Cerebrospinal fluid PK), the total exposure AUC(0-inf) worked out at 6900 ng·h/mL, the concentration peaked (Cmax) at 2200 ng/mL, the Tmax is 1 h and the half-life is 1.41 h. Also, in data set [1] (Plasma PK), the area under the curve AUC(0-inf) amounted to 9700 ng·h/mL, the peak concentration (Cmax) stood at 3090 ng/mL, the time to peak (Tmax) was found to be 1 h and the half-life is 1.4 h. In addition, in data set [2], the efflux ratio at 2 h, 10 µM amounted to 0.9. Moreover, the apparent permeability from apical to basolateral (Papp A→B) at 2 h, 10 µM in data set [2] (A to B) came to 7.56 ×10⁻⁶ cm/s. Besides, the solubility at […] in data set [3] was above 50 µg/mL. In data set [4] (mouse IV (2 mg/kg)), this compound gave an AUC(0-inf) of 2210 ng·h/mL, a C0 of 2110 ng/mL, a clearance of 15.1 mL/min/kg and a half-life of 1.33 h. For the same compound, the Vd in data set [4] (mouse IV (2 mg/kg), read-out: Vss) turned out to be 1.31 L/kg. In data set [4] (mouse PO (10 mg/kg)), the AUC(0-inf) turned out to be 9820 ng·h/mL, the peak concentration (Cmax) worked out at 3000 ng/mL, the Tmax turned out to be 0.417 h and the half-life is 1.84 h. This compound also registered a bioavailability in data set [4] (mouse PO (10 mg/kg) vs IV (2 mg/kg)) of 89%. Besides, the “protection of axons from injury-induced axonal degeneration” value in the data set with sciatic nerve was “significantly protect axons from injury-induced axonal degeneration”.

These data come from patent EP4741397A1, “FUSED TRICYCLIC COMPOUND, AND PREPARATION METHOD THEREFOR AND USE THEREOF” (Shenzhen Zhongge Biological Technology Co., Ltd., priority 2023, dated 2025).
